Source: patent US8124778B2, “Tricyclic inhibitors of fatty acid amide hydrolase” (The Scripps Research Institute, priority 2007, dated 2012)

Target: T1, purified recombinant rat FAAH (Rattus norvegicus, UniProt P97612)
T1 construct: The truncated rat FAAH (rFAAH) was expressed in E. coli and purified as described; made in house; host or cells: E. coli
T1 sequence (P97612 30-579 limits assumed): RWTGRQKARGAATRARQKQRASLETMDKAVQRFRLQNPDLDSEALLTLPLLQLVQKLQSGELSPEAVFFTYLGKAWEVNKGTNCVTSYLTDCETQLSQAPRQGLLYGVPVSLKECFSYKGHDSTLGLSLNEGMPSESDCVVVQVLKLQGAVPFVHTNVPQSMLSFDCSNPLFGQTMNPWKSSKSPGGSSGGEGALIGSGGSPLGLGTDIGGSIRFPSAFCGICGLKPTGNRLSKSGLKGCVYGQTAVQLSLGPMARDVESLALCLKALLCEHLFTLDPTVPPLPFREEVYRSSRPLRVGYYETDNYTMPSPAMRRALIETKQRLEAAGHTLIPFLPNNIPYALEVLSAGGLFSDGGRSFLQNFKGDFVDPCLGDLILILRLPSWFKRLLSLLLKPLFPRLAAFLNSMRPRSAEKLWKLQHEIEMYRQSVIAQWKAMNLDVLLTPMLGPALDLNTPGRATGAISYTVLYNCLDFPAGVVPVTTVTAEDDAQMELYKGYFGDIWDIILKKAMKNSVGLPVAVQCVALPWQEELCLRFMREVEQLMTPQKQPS
Experiment: FAAH inhibition enzyme assay (14C-oleamide hydrolysis, Dixon plot)
Assay type: biochemical
Conditions: rat FAAH
Method: Enzyme assays were performed at 20-23° C. with purified recombinant rat FAAH expressed in E. coli (Patricelli, M. P.; Lashuel, H. A.; et al. Biochemistry 1998, 37, 15177-15187) (unless indicated otherwise) or with solubilized COS-7 membrane extracts from cells transiently transfected with human FAAH cDNA (Giang, D. K.; Cravatt, B. F. Proc. Natl. Acad. Sci. U.S.A. 1997, 94, 2238-2242) (where specifically indicated) in a buffer of 125 mM Tris/1 mM EDTA/0.2% glycerol/0.02% Triton X-100/0.4 mM Hepes, pH 9.0 buffer (Patricelli, M. P.; Patterson, J. P.; et al. Bioorg. Med. Chem. Lett. 1998, 8, 613-618). The initial rates of hydrolysis (≦10-20% reaction) were monitored using enzyme concentrations at least three times below the measured Ki by following the breakdown of ^14C-oleamide and Ki's (standard deviations are provided in Supporting Information tables) were established as described (Dixon plot) (Boger, D. L.; Sato, H.; et al. Proc. Natl. Acad. Sci. U.S.A. 2000, 97, 5044-5049). Lineweaver-Burk analysis previously established reversible, competitive inhibition (Boger, D. L.; Miyauchi, H.; et al. J. Med. Chem. 2005, 48, 1849-1856).
FAAH Inhibition. ^14C-labeled oleamide was prepared from ^14C-labeled oleic acid as described (Cravatt, B. F.; et al. Science 1995, 268, 1506-1509). The truncated rat FAAH (rFAAH) was expressed in E. coli and purified as described (Patricelli, M. P.; Lashuel, H. A.; et al. Biochemistry 1998, 37, 15177-15187). The purified recombinant rFAAH was used in the inhibition assays unless otherwise indicated. The full-length human FAAH (hFAAH) was expressed in COS-7 cells as described (Giang, D. K.; Cravatt, B. F. Proc. Natl. Acad. Sci. U.S.A. 1997, 94, 2238-2242), and the lysate of hFAAH-transfected COS-7 cells was used in the inhibition assays where explicitly indicated.
The inhibition assays were performed as described (Cravatt, B. F.; et al. Science 1995, 268, 1506-1509). In brief, the enzyme reaction was initiated by mixing 1 nM of rFAAH (800, 500, or 200 pM rFAAH for inhibitors with Ki≦1-2 nM) with 10 μM of ^14C-labeled oleamide in 500 μL of reaction buffer (125 mM TrisCl, 1 mM EDTA, 0.2% glycerol, 0.02% Triton X-100, 0.4 mM Hepes, pH 9.0) at room temperature in the presence of three different concentrations of inhibitor. The enzyme reaction was terminated by transferring 20 μL of the reaction mixture to 500 μL of 0.1 N HCl at three different time points. The ^14C-labeled oleamide (substrate) and oleic acid (product) were extracted with EtOAc and analyzed by TLC as detailed (Cravatt, B. F.; et al. Science 1995, 268, 1506-1509). The Ki of the inhibitor was calculated using a Dixon plot as described (standard deviations are provided in the Supporting Information tables) (Boger, D. L.; Sato, H.; et al. Proc. Natl. Acad. Sci. U.S.A. 2000, 97, 5044-5049). Lineweaver-Burk analysis was performed as described confirming competitive, reversible inhibition (Boger, D. L.; Miyauchi, H.; et al. J. Med. Chem. 2005, 48, 1849-1856).

Compound	FAAH inhibitory potency (in words)
O=C(CCCCSCc1ccccc1)c1ncc(-c2ccccn2)o1 [12k, 5-(Benzylthio)-1-(5-(pyridin-2-yl)oxazol-2-yl)pentan-1-one]	significant potency
O=C(CCCCc1ccccc1)CC(=O)c1ncc(-c2ccccn2)o1 [14g, 7-Phenyl-1-(5-(pyridin-2-yl)oxazol-2-yl)heptane-1,3-dione]	significant loss of inhibitory potency
O=C(CCCCCSc1ccccc1)c1ncc(-c2ccccn2)o1 [12p, 6-(Phenylthio)-1-(5-(pyridin-2-yl)oxazol-2-yl)hexan-1-one]	significant potency
O=C(CCCCCCc1cccs1)c1ncc(-c2ccccn2)o1 [5a, 1-Oxo-1-[5-(2-pyridyl)oxazol-2-yl]-7-(2-thienyl)heptane]	effective inhibitors
O=C(CCCCCCc1cccc2ccccc12)c1ncc(-c2ccccn2)o1 [5c, 1-Oxo-1-[5-(2-pyridyl)oxazol-2-yl]-7-(1-naphthyl)heptane]	effective inhibitors
O=C(CCCCCCc1ccsc1)c1ncc(-c2ccccn2)o1 [5b, 1-Oxo-1-[5-(2-pyridyl)oxazol-2-yl]-7-(3-thienyl)heptane]	effective inhibitors
O=C(CCC(O)CCCc1ccccc1)c1ncc(-c2ccccn2)o1 (stereo not drawn) [13f, 4-Hydroxy-7-phenyl-1-(5-(pyridin-2-yl)oxazol-2-yl)heptan-1-one]	lower potency
OC(CCCCc1ccccc1)CC(O)c1ncc(-c2ccccn2)o1 (stereo not drawn) [14h, 7-Phenyl-1-(5-(pyridin-2-yl)oxazol-2-yl)heptane-1,3-diol]	substantial loss in inhibitory potency
O=C(CCCCCCc1ccc2ccccc2c1)c1ncc(-c2ccccn2)o1 [5d, 1-Oxo-1-[5-(2-pyridyl)oxazol-2-yl]-7-(2-naphthyl)heptane]	effective inhibitors
CS(=O)(=O)c1cccc(CCCCCCC(=O)c2ncc(-c3ccccn3)o2)c1 [5ll, 1-Oxo-1-[5-(2-pyridyl)oxazol-2-yl]-7-(3-(methylsulfonyl)phenyl)heptane]	significant potency
CCCCCCc1cccc(CCCCCCC(=O)c2ncc(-c3ccccn3)o2)c1 [5oo, 1-Oxo-1-[5-(2-pyridyl)oxazol-2-yl]-7-(3-hexylphenyl)heptane]	less effective
O=C(CCC(=O)c1ncc(-c2ccccn2)o1)NCCc1ccccc1 [13a, 4-Oxo-N-phenethyl-4-(5-(pyridin-2-yl)oxazol-2-yl)butanamide]	lower ability to inhibit FAAH
CCCCCCc1ccc(CCCCCCC(=O)c2ncc(-c3ccccn3)o2)cc1 [5nn, 1-Oxo-1-[5-(2-pyridyl)oxazol-2-yl]-7-(4-hexylphenyl)heptane]	significant potency
O=C(c1ncc(-c2ccccn2)o1)C1CCCC1 [14e, Cyclopentyl(5-(pyridin-2-yl)oxazol-2-yl)methanone]	loss of activity
O=C(CCl)c1ncc(-c2ccccn2)o1 [14f, 2-Chloro-1-(5-(pyridin-2-yl)oxazol-2-yl)ethanone]	submicromolar inhibitor of FAAH
O=C(c1ncc(-c2ccccn2)o1)C1CC1 [14d, Cyclopropyl(5-(pyridin-2-yl)oxazol-2-yl)methanone]	loss of activity
O=C(CS(=O)(=O)CCCCc1ccccc1)c1ncc(-c2ccccn2)o1 [12d, 2-(4-Phenylbutylsulfonyl)-1-(5-(pyridin-2-yl)oxazol-2-yl)ethanone]	significant loss in potency
O=C(CSCCCCc1ccccc1)c1ncc(-c2ccccn2)o1 [12b, 2-(4-Phenylbutylthio)-1-(5-(pyridin-2-yl)oxazol-2-yl)ethanone]	significant potency
CN(CCCCc1ccccc1)CC(O)c1ncc(-c2ccccn2)o1 (stereo not drawn) [14i, 2-(Methyl(4-phenylbutyl)amino)-1-(5-(pyridin-2-yl)oxazol-2-yl)ethanol]	substantial loss in inhibitory potency

Same assay, conditions: rat FAAH, o- and p-methylsulfone vs 5ll

Compound	fold less effective than m-methylsulfone 5ll
CS(=O)(=O)c1ccc(CCCCCCC(=O)c2ncc(-c3ccccn3)o2)cc1 [5mm, 1-Oxo-1-[5-(2-pyridyl)oxazol-2-yl]-7-(4-(methylsulfonyl)phenyl)heptane]	approximately 10 fold
CS(=O)(=O)c1ccccc1CCCCCCC(=O)c1ncc(-c2ccccn2)o1 [5kk, 1-Oxo-1-[5-(2-pyridyl)oxazol-2-yl]-7-(2-(methylsulfonyl)phenyl)heptane]	approximately 10 fold

Same assay, conditions: recombinant rat FAAH, 14C-oleamide, pH 9.0, 20-23 °C

Compound	Ki [nM]
O=C(CCCCCSc1ccccc1)c1ncc(-c2ccccn2)o1 [12p, 6-(Phenylthio)-1-(5-(pyridin-2-yl)oxazol-2-yl)hexan-1-one]	3
O=C(CCCCCCc1cccc2ccccc12)c1ncc(-c2ccccn2)o1 [5c, 1-Oxo-1-[5-(2-pyridyl)oxazol-2-yl]-7-(1-naphthyl)heptane]	2.6
O=C(c1ncc(-c2ccccn2)o1)C(O)CCCCCc1ccccc1 (stereo not drawn) [13d, 2-Hydroxy-7-phenyl-1-(5-(pyridin-2-yl)oxazol-2-yl)heptan-1-one]	8
O=C(CCCCCCc1cccc(Cl)c1)c1ncc(-c2ccccn2)o1 [5hh, 1-Oxo-1-[5-(2-pyridyl)oxazol-2-yl]-7-(3-chlorophenyl)heptane]	0.9

System: not given
Experiment: not given
Conditions: not given

Compound	melting point [°C]
O=C(CCCCC#Cc1cccc(Cl)c1)c1ncc(-c2ccccn2)o1 [4hh, 1-Oxo-1-[5-(2-pyridyl)oxazol-2-yl]-7-(3-chlorophenyl)hept-6-yne]	50 to 51
O=C(CCCCCCc1cccc(Cl)c1)c1ncc(-c2ccccn2)o1 [5hh, 1-Oxo-1-[5-(2-pyridyl)oxazol-2-yl]-7-(3-chlorophenyl)heptane]	91 to 92
